Experimental data taken from US12668646B2, “Cross-linking compounds and methods of use thereof” (North Carolina State University, priority 2019, dated 2026).
Values joined by “and” are separate entries in the source; they are usually repeats but may differ in a detail not shown here. Identical values can stand only once.

Tests used:
Type in all cases: biochemical
[1] = biological target: T1, β-glucosidase from Agrobacterium sp. (Agrobacterium sp., UniProt P12614); assay: Oligomerization of compound V with β-glucosidase
T1 construct: purchased Megazyme
T1 sequence (P12614 1-459): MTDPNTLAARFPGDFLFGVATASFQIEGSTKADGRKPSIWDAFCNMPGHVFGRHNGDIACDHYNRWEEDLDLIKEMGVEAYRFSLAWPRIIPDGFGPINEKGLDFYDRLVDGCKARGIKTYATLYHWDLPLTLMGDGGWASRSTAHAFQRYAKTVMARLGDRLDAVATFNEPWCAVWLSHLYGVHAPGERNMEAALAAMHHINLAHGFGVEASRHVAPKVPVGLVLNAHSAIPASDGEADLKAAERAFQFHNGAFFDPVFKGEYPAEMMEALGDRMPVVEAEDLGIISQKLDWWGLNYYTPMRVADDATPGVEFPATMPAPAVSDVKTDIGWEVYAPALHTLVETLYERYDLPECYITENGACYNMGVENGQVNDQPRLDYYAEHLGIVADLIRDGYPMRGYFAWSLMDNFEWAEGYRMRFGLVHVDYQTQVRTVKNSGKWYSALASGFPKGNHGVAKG
Method: The oligomerization of compound V was examined by treatment with the enzyme […]-glucosidase. The reaction mixture contained 50 μM of compound V and 200 nM of β-glucosidase (250-fold ratio). The reaction mixture was only faintly blue but upon centrifugation after 5 h of incubation, a blue precipitate was obtained. According to the colors of samples (FIG. 13, panel A), the yield of precipitate is low by comparison with our previously reported enzyme-substrate pairs (see Example 1). Multiple additions of enzyme (4×0.20 μM of enzyme stock, every 2 h) and longer incubation times (10 h or 24 h) were also tested but no increase in solution intensity or precipitate was observed. For the samples after 300 min of incubation, the precipitates suspended in H2O were screened by optical microscopy (FIG. 13, panel B) and DLS (FIG. 13, panel C). The size of aggregates is between 100 and 1000 nm as measured by DLS, which is consistent with the images obtained by optical microscopy (˜1 μm).
Quantitation of the indigogenic compounds in the precipitate and supernatant was carried out by absorption spectroscopy and multicomponent analysis (MCA) (M. Taniguchi, et al., Photochem. Photobiol., 2018, 94, 277-289) (FIG. 13, panels D and E). MCA analysis is essential due to the overlaid spectra of indigo and coumarin at 362 nm, the peak wavelength for the coumarin. Spectral deconvolution relied on knowledge of the molar absorption coefficient at 362 nm of coumarin (εcou362=2.0×10^4 M^−1 cm^−1 measured in DMF) and indigo model compound F19 (see Example 1 where F-19 is compound 43) shown in Chart 2 (εind362=0.81×10^4 M^−1 cm^−1 measured in DMSO/H2O, v/v=2/1); and the molar absorption coefficient of F19 at 630 nm (εind630=2.6×10^4 M^[…] cm^−1, measured in DMSO/H2O, v/v=2/1). The residual upon MCA was smaller than any of the components, as required for accurate analysis (Y. Mang, et al., Phytochem. Anal., 2018, 29, 205-216). In this manner, the precipitate is composed of 51.6 nmol of coumarin and 2.8 nmol of indigoid dye; the supernatant is composed of 11.1 nmol of coumarin and 0.3 nmol of indigoid dye.
Materials. DMF (HPLC grade) was purchased from Alfa Aesar. H2O (molecular biology grade) for buffer preparation was purchased from Millipore Sigma. Compound V (5.6 mg) was dissolved in DMF (26 μL) to prepare 100 mM stock solution. Pi buffer was prepared freshly at 10 mM, pH 7. The enzyme β-glucosidase from Agrobacterium sp. was purchased from MegaZyme and was dissolved in Pi buffer at 10 μM to prepare the stock solution.
To screen the oligomerization procedure of compound V, samples of Pi buffer (1859 μL), DMF (100 μL), β-glucosidase stock (40 μL) and compound V stock (1 μL) were mixed in a 2-mL Eppendorf tube. The resulting mixed sample (2.0 mL) contains 50 μM of compound V as the substrate and 0.20 μM of β-glucosidase as the enzyme. Three identical samples were prepared for different assays. For a control sample, 40 μL of Pi buffer was added as a replacement for the β-glucosidase stock solution. The tubes were incubated at 37° C. for 5 h, and pictures of the tubes were captured at 0, 15, 30, 60, 120, 180 and 300 min. After 300 min, the tubes were centrifuged at 20,000×g for 10 min to isolate any precipitate from the supernatant. No precipitate formed in the control sample.
Three samples were treated differently for three assays: (1) for sample 1, the precipitate was dissolved in 100 μL of DMF for absorption screening; (2) for sample 2, the precipitate was suspended in 100 μL of H2O for microscopic imaging; and (3) for sample 3, the precipitate was suspended in 1000 μL of H2O for dynamic light scattering (DLS) assay. The supernatant of sample 1 was freeze-dried under high vacuum and afterwards dissolved in 100 μL of DMF for absorption screening. The absorption spectra of the precipitates and supernatants were employed for quantitation of indigo and coumarin. […]

[2] = system: β-glucosidase from almonds; assay: Indigogenic reaction with β-glucosidase from almonds
[3] = biological target: T2, β-glucosidase from Agrobacterium (Agrobacterium sp., UniProt P12614); assay: Indigogenic reaction with β-glucosidase from Agrobacterium
T2 construct: purchased Megazyme
T2 sequence (P12614 1-459): T1 sequence (P12614 1-459)
Method: Next, the β-glucosidase from Agrobacterium sp. was investigated as the trigger enzyme for indigoid dye formation. […] The reaction was carried out using the enzyme (200 nM) and indoxyl-glucoside 33 (100 μM) in phosphate buffer (pH 4-9, containing 2% DMF) at 37° C. […] Note that with 200 nM enzyme and 100 μM substrate, complete reaction requires 500 turnovers of each enzyme.
Reactions with β-glucosidase from Agrobacterium. An indoxyl compound in DMF (2 μL, 5 mM) and β-glucosidase from Agrobacterium in 10 mM phosphate buffer [2 μL, 10 μM, pH 7.0, containing 50 mM NaCl and 0.6 M (NH4)2SO4] were mixed with 50 mM phosphate buffer (96 μL, pH 7.0). The reaction mixture was incubated at 37° C. for 2 h and then centrifuged for 3 min. Any precipitate was separated from the supernatant and dissolved in DMF (200 μL). The resulting solution was analyzed by absorption spectroscopy. The experiment was repeated three times.

tritosomes = assay: Indigoid dye formation with tritosomes; details: result in words
Method: The results from the glucosidase survey prompted several further experiments. First, a parallel set of studies was carried out with inclusion of several oxidants commonly employed in histochemical studies, given that the indigoid dye forming process requires the presence of an oxidant. […] The activity of the β-glucosidase was affected only slightly in the presence of a non-ionic detergent. To verify that the results observed in Table 1 were reliable, a 5-mg scale reaction of 33 was carried out to isolate indigo 43, which was obtained in 66% yield (Scheme 7). The 66% isolated yield corresponded well with the enzymatic yield of […] (Table 1, entry 15).
General methods. β-Glucosidase from almonds (lyophilized powder, ≥2 units/mg solid) and peroxidase from horseradish were purchased from Sigma-Aldrich. β-Glucosidase from Agrobacterium sp. (recombinant, suspension in 3.2 M (NH4)2SO4) was purchased from Megazyme; the concentration in solution was determined by absorption spectroscopy with E^0.1%=2.20 cm^−1 at 280 nm.^37 Tritosomes were purchased from XenoTech. Rat liver homogenate was purchased from MP Biomedicals.

[4] = biological target: T2, β-glucosidase from Agrobacterium; assay: Enzyme-triggered oligomerization of bis(indoxyl-glucoside) 46
Method: Oligomerization of 46 was carried out by treatment with β-glucosidase from Agrobacterium (200 nM) in 10 mM phosphate buffer (pH 7) at 37° C. for 2-4 h (Scheme 9). Precipitation occurred during the reaction. After centrifugation, the precipitate was separated from the supernatant, washed with H2O, and dried to afford a blue solid.
The efficacy of the indigogenic oligomerization was examined under a variety of conditions. As shown in entries 1-4 in Table 2, the yield of indigoid dye in the supernatant versus precipitate reversed as the concentration of 46 was decreased from 300 to 10 μM, although the total yields were in the range 17-29%. While the reactions in entries 1-4 were carried out in phosphate buffer containing NaCl (0.05 M), those of entries 5 and 6 (with 300 and 50 μM of 46, respectively) were conducted in NaCl-free phosphate buffer. The use of NaCl-free phosphate buffer facilitated extraction of the indigoid dye in the supernatant for analysis.
The time course of the oligomerization was examined under the reaction conditions listed in entry 5 of Table 2, with 300 μM of 46. Noticeable changes include observation of blue clouding and color deepening at 20 min. Centrifugation enabled isolation of the precipitate. […] The absorption spectrum of the precipitate was examined in DMF/DMSO (9:1) and compared with that of the extracted supernatant (in DMF) and 43 (in DMF) (FIG. 10D). […] Size-exclusion chromatography (SEC) [DMF/DMSO (9:1) as eluent] was applied to the precipitate and to the supernatant extract prepared from 300 μM of 46 (FIG. 10E). The first peak appeared at 18-20 min, and then the second peak at 38.5 min. The ratio of peak areas in the supernatant extract was 11:89, whereas that in the precipitate was 93:7. On the basis of a calibration curve prepared with poly(2-vinylpyridine) standards, the molecular size for the first and second peaks was expected to be >265 and <1 kDa, respectively. The large molecular size indicated for the first peak likely implies aggregation or assembly of the oligomers. The chromatograms for the samples prepared with 50 μM of 46 gave similar results but with higher purity compared with those at higher concentration.

[5] = 100 nmol compound V added, absorption spectroscopy and MCA
[6] = absorption spectroscopy and MCA
[7] = indoxyl 1 mM, enzyme 1 unit/mL, 0.01M acetate buffer pH 5, 5% DMF, 37° C., 16-19 h, ϵ = 1.27 × 10^4 M^−1 cm^−1 measured for 4

Compound: 2,4-Bis[1-(3-(β-D-glucopyranosyloxy)-4,6-dibromo-1H-indol-5-yl)-1,4,7,10-tetraoxadec-10-yl]-6-[14-(3-(2-(1-azido-3,6,9,12,15-pentaoxoheptadecylamino)-4-[12-((4-methyl-2H-chromen-2-one-7-yl)amino)ethylamino]-1,3,5-triazin-6-yloxy)propyl)-4-(3-sulfopropyl)piperazin-1-yl]-1,3,5-triazine [Compound V]
- Indigoid dye in the precipitate [1, 5]: 2.8 nmol
- Indigoid dye in the supernatant [1, 5]: 0.3 nmol
- Yield of indigoid dye (total) ([1]; 50 μM compound V, 200 nM β-glucosidase, 37° C., 5 h, MCA): 3.1%
- Coumarin in the precipitate [1, 6]: 51.6 nmol
- Coumarin in the supernatant [1, 6]: 11.1 nmol
- Size of aggregates (optical microscopy) ([1]; precipitate after 300 min suspended in H2O): ~1 μm
- Total quantity of indigoid dye ([1]; precipitate plus supernatant): 3.1 nmol
- Total amount of coumarin calculated by MCA ([1]; precipitate plus supernatant, 100 nmol compound V added): 62.7 nmol

Compound: C#CCOc1ccc2[nH]cc(O[C@@H]3O[C@H](CO)[C@@H](O)[C@H](O)[C@H]3O)c2c1Br [Compound 26, 4-Bromo-5-propargyloxy-1H-indol-3-yl β-D-glucopyranoside]
- Yield (%) β-glucosidase from almonds [2, 7]: 56%

Compound: COC(=O)COc1ccc2[nH]cc(O[C@@H]3O[C@H](CO)[C@@H](O)[C@H](O)[C@H]3O)c2c1Br [Compound 23, 4-Bromo-5-(methoxycarbonyl)methoxy-1H-indol-3-yl β-D-glucopyranoside]
- Yield (%) β-glucosidase from almonds [2, 7]: 68%

Compound: 5-{[(1R,8S,9s)-Bicyclo[6.1.0]non-4-yn-9-yl]methoxy}-4,6-dibromo-1H-indole-3-yl β-D-glucopyranoside [Compound 30]
- Yield (%) β-glucosidase from Agrobacterium ([3]; as E4 but ϵ = 2.6 × 10^4 M^−1 cm^−1 measured for 43): 10% and 10 ± 0.4%
- Yield (%) β-glucosidase from Agrobacterium ([3]; indoxyl 100 μM, enzyme 200 nM, 0.05M phosphate buffer pH 7.0, 2% DMF, 37° C., 2 h, n=3, ϵ = 1.27 × 10^4 M^−1 cm^−1): 21 ± 1%

Compound: 5-[(Benzylcarbamoyl)oxy)]-1H-indole-3-yl β-D-glucopyranoside [Compound 16]
- Yield (%) β-glucosidase from almonds [2, 7]: 24%
- Indigoid dye formation with tritosomes (tritosomes): low yield

Compound: 5-bromo-4-chloroindoxyl β-glucoside [Compound 42, reference compound]
- Yield (%) β-glucosidase from almonds ([2]; as E1 but ϵ = 2.00 × 10^4 M^−1 cm^−1 reported for 5,5′-dibromo-4,4′-dichloroindigo): 74% and 74^e %

Compound: O=S(=O)([O-])CCC[N+]1(CCCO)CCN(c2nc(OCCOCCOCCOc3c(Br)cc4[nH]cc(O[C@@H]5O[C@H](CO)[C@@H](O)[C@H](O)[C@H]5O)c4c3Br)nc(OCCOCCOCCOc3c(Br)cc4[nH]cc(O[C@@H]5O[C@H](CO)[C@@H](O)[C@H](O)[C@H]5O)c4c3Br)n2)CC1 [Compound 46]
- Total yield of indigoid dye (supernatant plus precipitate) ([4]; entries 1-4 of Table 2, [46] 300 to 10 μM): 17-29%
- Yield of indigoid dye (%) supernatant ([4]; entry 1: [46] 300 μM, 2 h, phosphate buffer containing NaCl (0.05M), ε = 2.6 × 10^4): 6%
- Yield of precipitate based on the monomer formula weight ([4]; larger scale (7.87 mg), conditions of entry 5 in Table 2): 49%
- Particle size of the precipitate (DLS, number mean) ([4]; precipitate suspended in H2O, 300 μM of 46, entry 5 conditions): ~680 nm

Compound: C#CCOc1ccc2[nH]cc(O[C@@H]3O[C@H](CO)[C@@H](O)[C@H](O)[C@H]3O)c2c1 [Compound 25, 5-Propargyloxy-1H-indol-3-yl β-D-glucopyranoside]
- Yield (%) β-glucosidase from almonds [2, 7]: <5%

Compound: COC(=O)COc1ccc2[nH]cc(O[C@@H]3O[C@H](CO)[C@@H](O)[C@H](O)[C@H]3O)c2c1 [Compound 22, 5-(Methoxycarbonyl)methoxy-1H-indol-3-yl β-D-glucopyranoside]
- Yield (%) β-glucosidase from almonds [2, 7]: <1%
